Drawing on the supplement of paper PMC12463676, “Small-molecule dissolution of stress granules by redox modulation benefits ALS models” (Nature Chemical Biology, 2025), this text covers thermal stability z-score for 43 targets.

Compound in one assay: NC(=O)CCCCC1CCSS1 [lipoamide]
Briefly: thermal stability z-score vs DMSO; higher = more thermally stabilized by treatment. The following applies: HeLa, lipoamide concentration 100 µM. The method, then:
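Cellular thermal proteome profiling in HeLa cells. Cells were treated with 100 µM lipoamide for 1 h, with or without 1 mM arsenate for a further 1 h, then heated to ten temperatures (37-66.3 °C), and soluble protein was quantified by TMT mass spectrometry relative to 0.1% DMSO controls. The thermal stability score (sum of log2 fold changes minus the abundance score) was transformed to a z-score; mean of n = 3 experiments.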

Compound in another assay: O=[As]([O-])(O)O.[K+] [potassium arsenate]
The description is as above. The following applies: HeLa; arsenate concentration 1 mM. The protocol:
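Cellular thermal proteome profiling in HeLa cells treated with 1 mM arsenate for 1 h (DMSO pretreatment), heated to ten temperatures (37-66.3 °C). Soluble protein was quantified by TMT mass spectrometry relative to DMSO controls; the thermal stability score was transformed to a z-score; mean of n = 3 experiments.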

Setting [1] is: arsenate co-treatment: 1 mM arsenate 1 h.
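Note: each temperature applied for 3 min, abundance score taken as mean log2 fold change at the two lowest temperatures, z-score obtained by mean subtraction and division by SD.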

UniProt Q9BU23, sequence (Q9BU23 whole entry): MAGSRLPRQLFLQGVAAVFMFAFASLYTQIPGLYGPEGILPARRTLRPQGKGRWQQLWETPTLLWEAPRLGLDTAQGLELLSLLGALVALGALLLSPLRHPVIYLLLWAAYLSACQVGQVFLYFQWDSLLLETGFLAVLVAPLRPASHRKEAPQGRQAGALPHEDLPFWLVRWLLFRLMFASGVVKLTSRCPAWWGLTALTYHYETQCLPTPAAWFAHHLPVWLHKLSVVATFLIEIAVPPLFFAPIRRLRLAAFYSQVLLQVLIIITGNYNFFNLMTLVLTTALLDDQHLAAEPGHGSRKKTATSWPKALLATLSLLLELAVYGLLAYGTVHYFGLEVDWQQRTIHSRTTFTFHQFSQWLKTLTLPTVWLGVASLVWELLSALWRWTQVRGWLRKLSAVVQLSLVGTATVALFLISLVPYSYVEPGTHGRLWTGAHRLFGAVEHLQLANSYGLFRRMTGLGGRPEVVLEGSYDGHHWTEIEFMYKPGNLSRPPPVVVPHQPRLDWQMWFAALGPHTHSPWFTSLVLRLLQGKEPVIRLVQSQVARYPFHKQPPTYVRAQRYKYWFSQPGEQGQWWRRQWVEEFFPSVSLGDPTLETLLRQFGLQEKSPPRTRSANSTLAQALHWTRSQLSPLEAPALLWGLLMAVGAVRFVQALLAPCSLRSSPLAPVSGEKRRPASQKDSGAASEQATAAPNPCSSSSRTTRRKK
UniProt P47813, sequence (P47813 whole entry): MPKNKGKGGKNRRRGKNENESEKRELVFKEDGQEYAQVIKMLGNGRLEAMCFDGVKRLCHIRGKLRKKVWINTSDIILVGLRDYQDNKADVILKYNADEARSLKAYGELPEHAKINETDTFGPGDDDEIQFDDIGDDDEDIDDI
UniProt Q9BWE0, sequence (Q9BWE0 whole entry): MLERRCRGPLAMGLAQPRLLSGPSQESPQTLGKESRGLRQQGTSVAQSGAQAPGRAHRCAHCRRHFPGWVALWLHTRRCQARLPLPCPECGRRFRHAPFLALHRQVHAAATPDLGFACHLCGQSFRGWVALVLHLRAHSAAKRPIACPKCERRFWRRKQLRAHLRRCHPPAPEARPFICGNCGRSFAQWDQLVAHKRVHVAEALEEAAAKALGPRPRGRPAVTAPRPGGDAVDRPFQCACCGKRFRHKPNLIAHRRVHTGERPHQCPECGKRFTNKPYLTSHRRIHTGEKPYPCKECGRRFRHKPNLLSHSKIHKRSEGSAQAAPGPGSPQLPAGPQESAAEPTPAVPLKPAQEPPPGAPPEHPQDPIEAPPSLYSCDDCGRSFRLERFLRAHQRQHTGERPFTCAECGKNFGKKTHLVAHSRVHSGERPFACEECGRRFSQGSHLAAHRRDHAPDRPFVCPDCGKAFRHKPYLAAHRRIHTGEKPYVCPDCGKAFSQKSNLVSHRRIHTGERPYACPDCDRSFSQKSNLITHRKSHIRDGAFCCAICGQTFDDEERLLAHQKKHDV
UniProt Q7Z4H8, sequence (Q7Z4H8 whole entry): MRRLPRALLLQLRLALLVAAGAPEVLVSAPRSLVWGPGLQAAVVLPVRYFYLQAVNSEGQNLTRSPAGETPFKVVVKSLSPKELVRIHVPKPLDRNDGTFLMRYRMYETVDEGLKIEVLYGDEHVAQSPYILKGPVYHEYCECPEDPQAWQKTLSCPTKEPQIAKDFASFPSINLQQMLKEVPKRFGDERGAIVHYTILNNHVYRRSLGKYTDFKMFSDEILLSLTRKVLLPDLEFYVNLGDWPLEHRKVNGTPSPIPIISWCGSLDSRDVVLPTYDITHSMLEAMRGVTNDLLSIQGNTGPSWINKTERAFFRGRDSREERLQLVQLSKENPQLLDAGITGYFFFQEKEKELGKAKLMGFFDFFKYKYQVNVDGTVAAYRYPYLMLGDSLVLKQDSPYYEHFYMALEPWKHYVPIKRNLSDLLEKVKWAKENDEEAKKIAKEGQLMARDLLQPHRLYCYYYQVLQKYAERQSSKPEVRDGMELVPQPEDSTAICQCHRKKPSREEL
UniProt Q9UGP8, sequence (Q9UGP8 whole entry): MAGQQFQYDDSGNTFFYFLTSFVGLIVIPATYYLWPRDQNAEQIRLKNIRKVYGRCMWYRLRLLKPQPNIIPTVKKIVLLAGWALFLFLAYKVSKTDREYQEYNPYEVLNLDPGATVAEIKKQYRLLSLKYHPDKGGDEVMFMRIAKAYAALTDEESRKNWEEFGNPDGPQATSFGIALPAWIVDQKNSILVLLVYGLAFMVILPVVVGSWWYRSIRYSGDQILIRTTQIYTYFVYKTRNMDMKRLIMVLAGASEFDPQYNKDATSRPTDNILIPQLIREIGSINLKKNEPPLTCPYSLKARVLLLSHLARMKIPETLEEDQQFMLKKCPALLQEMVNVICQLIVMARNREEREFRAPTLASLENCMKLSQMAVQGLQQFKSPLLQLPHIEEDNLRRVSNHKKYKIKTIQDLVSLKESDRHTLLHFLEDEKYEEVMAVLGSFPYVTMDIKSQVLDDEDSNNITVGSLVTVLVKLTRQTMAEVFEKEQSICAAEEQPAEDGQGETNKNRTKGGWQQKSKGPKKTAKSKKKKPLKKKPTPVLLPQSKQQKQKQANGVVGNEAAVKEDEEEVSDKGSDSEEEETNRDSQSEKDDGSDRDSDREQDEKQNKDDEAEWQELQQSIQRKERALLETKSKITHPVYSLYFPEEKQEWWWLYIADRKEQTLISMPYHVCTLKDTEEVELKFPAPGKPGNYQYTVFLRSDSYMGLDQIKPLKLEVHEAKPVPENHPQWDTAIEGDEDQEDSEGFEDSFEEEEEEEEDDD
UniProt Q15771, sequence (Q15771 whole entry): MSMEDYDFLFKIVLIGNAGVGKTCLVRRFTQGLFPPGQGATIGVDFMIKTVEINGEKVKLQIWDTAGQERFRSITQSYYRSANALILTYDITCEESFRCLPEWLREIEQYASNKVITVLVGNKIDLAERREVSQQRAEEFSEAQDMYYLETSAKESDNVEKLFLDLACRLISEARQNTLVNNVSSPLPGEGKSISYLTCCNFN
UniProt P15328, sequence (P15328 whole entry, looked up): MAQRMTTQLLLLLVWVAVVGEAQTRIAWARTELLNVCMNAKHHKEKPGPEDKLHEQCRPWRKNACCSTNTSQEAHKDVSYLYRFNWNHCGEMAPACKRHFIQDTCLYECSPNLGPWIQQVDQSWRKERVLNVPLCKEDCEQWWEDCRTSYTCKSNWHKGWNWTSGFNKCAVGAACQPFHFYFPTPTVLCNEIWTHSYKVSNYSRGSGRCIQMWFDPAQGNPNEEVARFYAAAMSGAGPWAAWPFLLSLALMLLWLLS
UniProt Q9UM00, sequence (Q9UM00 whole entry): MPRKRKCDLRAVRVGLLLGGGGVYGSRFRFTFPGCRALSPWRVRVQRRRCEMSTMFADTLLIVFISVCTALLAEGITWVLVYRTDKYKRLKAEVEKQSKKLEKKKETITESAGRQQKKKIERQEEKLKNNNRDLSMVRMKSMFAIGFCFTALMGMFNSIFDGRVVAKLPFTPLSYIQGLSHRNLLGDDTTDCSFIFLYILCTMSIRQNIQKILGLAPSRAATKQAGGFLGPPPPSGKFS
UniProt Q16719, sequence (Q16719 whole entry): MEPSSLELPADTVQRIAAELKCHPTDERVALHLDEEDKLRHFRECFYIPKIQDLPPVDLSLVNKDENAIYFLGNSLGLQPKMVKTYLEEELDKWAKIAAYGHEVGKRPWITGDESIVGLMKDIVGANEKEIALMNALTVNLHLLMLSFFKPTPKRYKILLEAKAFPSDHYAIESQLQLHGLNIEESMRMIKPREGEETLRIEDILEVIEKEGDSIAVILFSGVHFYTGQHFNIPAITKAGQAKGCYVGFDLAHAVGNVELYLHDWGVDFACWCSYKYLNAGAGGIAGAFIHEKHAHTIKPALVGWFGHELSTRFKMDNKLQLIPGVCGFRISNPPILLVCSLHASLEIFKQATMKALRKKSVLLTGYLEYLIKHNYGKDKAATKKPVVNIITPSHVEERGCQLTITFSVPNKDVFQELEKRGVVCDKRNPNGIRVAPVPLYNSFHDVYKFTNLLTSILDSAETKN
UniProt Q9BXI9, sequence (Q9BXI9 whole entry): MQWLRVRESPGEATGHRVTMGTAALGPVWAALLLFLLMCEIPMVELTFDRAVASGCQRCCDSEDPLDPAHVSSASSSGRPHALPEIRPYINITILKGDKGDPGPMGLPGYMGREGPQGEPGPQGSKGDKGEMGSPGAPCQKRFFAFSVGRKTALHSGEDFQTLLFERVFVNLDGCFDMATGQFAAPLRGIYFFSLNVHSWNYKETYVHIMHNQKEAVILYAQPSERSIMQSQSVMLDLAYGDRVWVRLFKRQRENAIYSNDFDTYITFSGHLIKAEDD
UniProt Q9NRN9, sequence (Q9NRN9 whole entry): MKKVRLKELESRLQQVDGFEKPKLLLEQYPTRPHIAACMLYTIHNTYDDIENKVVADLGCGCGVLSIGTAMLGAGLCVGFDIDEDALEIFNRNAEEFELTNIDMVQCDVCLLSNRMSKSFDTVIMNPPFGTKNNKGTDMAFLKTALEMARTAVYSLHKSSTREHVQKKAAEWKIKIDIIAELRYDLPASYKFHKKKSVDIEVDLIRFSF
UniProt Q8TCX1, sequence (Q8TCX1 whole entry): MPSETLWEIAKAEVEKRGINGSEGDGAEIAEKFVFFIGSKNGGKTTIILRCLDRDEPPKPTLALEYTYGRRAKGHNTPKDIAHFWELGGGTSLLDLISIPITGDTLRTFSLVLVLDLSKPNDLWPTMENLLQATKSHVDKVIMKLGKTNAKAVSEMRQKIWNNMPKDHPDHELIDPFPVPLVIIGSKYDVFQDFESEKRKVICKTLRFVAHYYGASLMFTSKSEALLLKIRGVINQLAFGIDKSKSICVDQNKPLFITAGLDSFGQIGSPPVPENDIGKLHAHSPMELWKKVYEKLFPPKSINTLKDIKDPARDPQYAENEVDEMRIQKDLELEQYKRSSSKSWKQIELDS
UniProt P60953, sequence (P60953 whole entry, looked up): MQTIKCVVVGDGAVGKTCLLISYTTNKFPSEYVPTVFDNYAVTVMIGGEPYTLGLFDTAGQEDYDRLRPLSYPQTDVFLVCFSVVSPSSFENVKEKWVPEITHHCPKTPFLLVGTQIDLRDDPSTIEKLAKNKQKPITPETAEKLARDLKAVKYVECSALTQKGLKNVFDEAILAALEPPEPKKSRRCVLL

As for C1QTNF6 (UniProt Q9BXI9), the thermal stability z-score in the assay with lipoamide (setting [1]) was -0.0299; in the assay with lipoamide (arsenate co-treatment: none), 0.334; with potassium arsenate, 0.794.

RCOR1 (UniProt Q9UKL0): the thermal stability z-score in the assay with lipoamide (setting [1]) is 1.01; with lipoamide (arsenate co-treatment: none) it was 0.999; in the assay with potassium arsenate, -0.739.

REPIN1 (UniProt Q9BWE0): the thermal stability z-score with lipoamide (setting [1]) was -0.686; with lipoamide (arsenate co-treatment: none), -0.309; with potassium arsenate, 0.53.

Regarding PAK2 (UniProt Q13177), the thermal stability z-score is -0.044 with lipoamide (setting [1]), 0.283 with lipoamide (arsenate co-treatment: none) and -0.165 with potassium arsenate.

Take TPCN1 (UniProt Q9ULQ1): the figures for the thermal stability z-score with lipoamide (setting [1]), with lipoamide (arsenate co-treatment: none) and with potassium arsenate were 0.0393, -0.00808 and -0.538, respectively.

Regarding DYNC2LI1 (UniProt Q8TCX1), the values for the thermal stability z-score in the assay with lipoamide (setting [1]), in the assay with lipoamide (arsenate co-treatment: none) and with potassium arsenate were 0.0696, -0.0585 and 0.202, respectively.

Consider NAPG (UniProt Q99747), for which the thermal stability z-score with lipoamide (setting [1]) was -0.212; in the assay with lipoamide (arsenate co-treatment: none) it was -0.012; in the assay with potassium arsenate, 0.0503.

As for BCAP29 (UniProt Q9UHQ4), the thermal stability z-score with lipoamide (setting [1]) is 0.262; with lipoamide (arsenate co-treatment: none), 0.211; in the assay with potassium arsenate it was -0.458.

On to METTL5 (UniProt Q9NRN9), for which the thermal stability z-score with lipoamide (setting [1]) was 0.768; with lipoamide (arsenate co-treatment: none) it was -0.318; with potassium arsenate, 0.233.

Regarding MED1 (UniProt Q15648), the thermal stability z-score with lipoamide (setting [1]) turned out to be 0.948; with lipoamide (arsenate co-treatment: none) it was 0.662; in the assay with potassium arsenate, 0.125.

In the case of NACA, the thermal stability z-score in the assay with lipoamide (setting [1]) was 0.468; with lipoamide (arsenate co-treatment: none) it was 0.47; in the assay with potassium arsenate, 0.508.

Take TRABD (UniProt Q9H4I3): the values for the thermal stability z-score with lipoamide (setting [1]), in the assay with lipoamide (arsenate co-treatment: none) and with potassium arsenate were 0.366, 0.172 and -0.0912, respectively.

For the target CNN2 (UniProt Q99439), the figures for the thermal stability z-score with lipoamide (setting [1]), in the assay with lipoamide (arsenate co-treatment: none) and with potassium arsenate were 0.281, 0.653 and 0.356, respectively.

On to MRPS30 (UniProt Q9NP92), for which the thermal stability z-score was -0.185 with lipoamide (setting [1]), -0.539 with lipoamide (arsenate co-treatment: none) and -0.147 with potassium arsenate.

Regarding TMCO1 (UniProt Q9UM00), the results for the thermal stability z-score with lipoamide (setting [1]), with lipoamide (arsenate co-treatment: none) and in the assay with potassium arsenate were 0.0581, 0.305 and -0.687, respectively.

As to KDELC2 (UniProt Q7Z4H8), the thermal stability z-score is -4.05 in the assay with lipoamide (setting [1]), -2.72 in the assay with lipoamide (arsenate co-treatment: none) and 0.334 with potassium arsenate.

On to RAB34, for which the thermal stability z-score with lipoamide (setting [1]) was 0.732; in the assay with lipoamide (arsenate co-treatment: none) it was 0.783; with potassium arsenate, -0.0345.

Consider PLD3 (UniProt Q8IV08), for which the values for the thermal stability z-score with lipoamide (setting [1]), with lipoamide (arsenate co-treatment: none) and with potassium arsenate were 0.32, 0.424 and 0.817, respectively.

With SEC63 (UniProt Q9UGP8), the thermal stability z-score in the assay with lipoamide (setting [1]) is -1.11; with lipoamide (arsenate co-treatment: none), -0.484; with potassium arsenate it was -0.767.

Consider KYNU (UniProt Q16719), for which the results for the thermal stability z-score with lipoamide (setting [1]), with lipoamide (arsenate co-treatment: none) and with potassium arsenate were 0.77, 0.403 and 0.0266, respectively.

On to NCAPH2 (UniProt Q6IBW4), for which the thermal stability z-score is -0.0183 with lipoamide (setting [1]), 0.00929 in the assay with lipoamide (arsenate co-treatment: none) and -0.299 in the assay with potassium arsenate.

On to CLIC4 (UniProt Q9Y696), for which the thermal stability z-score is 0.264 with lipoamide (setting [1]), 0.427 in the assay with lipoamide (arsenate co-treatment: none) and -0.572 in the assay with potassium arsenate.

As to AIFM1 (UniProt O95831), the figures for the thermal stability z-score with lipoamide (setting [1]), with lipoamide (arsenate co-treatment: none) and in the assay with potassium arsenate were -0.464, -0.558 and 0.186, respectively.

Consider CDC42 (UniProt P60953), for which the thermal stability z-score in the assay with lipoamide (setting [1]) was determined as 0.932; with lipoamide (arsenate co-treatment: none), 0.454; with potassium arsenate, 0.0976.

As to NCAPD2 (UniProt Q15021), the thermal stability z-score is -0.565 with lipoamide (setting [1]), -0.251 with lipoamide (arsenate co-treatment: none) and 0.369 with potassium arsenate.

Turning to FOLR1 (UniProt P15328), the figures for the thermal stability z-score with lipoamide (setting [1]), in the assay with lipoamide (arsenate co-treatment: none) and with potassium arsenate were 0.588, 0.376 and 0.366, respectively.

As for EIF1AX (UniProt P47813), the results for the thermal stability z-score with lipoamide (setting [1]), with lipoamide (arsenate co-treatment: none) and in the assay with potassium arsenate were -0.268, 0.0406 and 0.464, respectively.

PREX1 (UniProt Q8TCU6): the thermal stability z-score is 0.02 with lipoamide (setting [1]), 0.0645 with lipoamide (arsenate co-treatment: none) and -0.0577 with potassium arsenate.

Turning to RAB30 (UniProt Q15771), the thermal stability z-score is -0.315 in the assay with lipoamide (setting [1]), -0.0453 in the assay with lipoamide (arsenate co-treatment: none) and 0.498 with potassium arsenate.

On to JMY (UniProt Q8N9B5), for which the thermal stability z-score is -0.0736 with lipoamide (setting [1]), -0.168 with lipoamide (arsenate co-treatment: none) and -0.323 with potassium arsenate.

Take TMOD1 (UniProt P28289): the results for the thermal stability z-score with lipoamide (setting [1]), with lipoamide (arsenate co-treatment: none) and in the assay with potassium arsenate were 0.167, 0.298 and 0.225, respectively.

DSC2 (UniProt Q02487): the thermal stability z-score with lipoamide (setting [1]) stood at 2.38; with lipoamide (arsenate co-treatment: none), 5.06; with potassium arsenate, 1.77.

As for SH3BGRL3 (UniProt Q9H299), the values for the thermal stability z-score in the assay with lipoamide (setting [1]), in the assay with lipoamide (arsenate co-treatment: none) and in the assay with potassium arsenate were -0.0209, -0.395 and 0.000903, respectively.

Consider HSF1 (UniProt Q00613), for which the thermal stability z-score with lipoamide (setting [1]) is -0.332; with lipoamide (arsenate co-treatment: none) it was -0.199; with potassium arsenate, -0.185.

On to LMF2 (UniProt Q9BU23), for which the thermal stability z-score in the assay with lipoamide (setting [1]) is -0.972; in the assay with lipoamide (arsenate co-treatment: none), -0.61; with potassium arsenate, 0.316.

ATP1B1 (UniProt P05026): the thermal stability z-score with lipoamide (setting [1]) is 0.104; with lipoamide (arsenate co-treatment: none), -0.207; in the assay with potassium arsenate, -0.201.

As for SYDE1 (UniProt Q6ZW31), the thermal stability z-score is -0.177 in the assay with lipoamide (setting [1]), -0.208 in the assay with lipoamide (arsenate co-treatment: none) and -0.278 in the assay with potassium arsenate.

Consider LCLAT1 (UniProt Q6UWP7), for which the figures for the thermal stability z-score with lipoamide (setting [1]), in the assay with lipoamide (arsenate co-treatment: none) and in the assay with potassium arsenate were 1.1, 0.0592 and -2.38, respectively.

With PQBP1 (UniProt O60828), the figures for the thermal stability z-score with lipoamide (setting [1]), with lipoamide (arsenate co-treatment: none) and with potassium arsenate were 0.533, -0.261 and -0.0247, respectively.

With VEZT (UniProt Q9HBM0), the thermal stability z-score with lipoamide (setting [1]) is -0.758; with lipoamide (arsenate co-treatment: none) it was -0.707; in the assay with potassium arsenate it was -0.349.

CRELD1 (UniProt Q96HD1): the thermal stability z-score in the assay with lipoamide (setting [1]) is -0.249; in the assay with lipoamide (arsenate co-treatment: none), -0.193; with potassium arsenate, -0.113.

Regarding SNU13 (UniProt P55769), the figures for the thermal stability z-score with lipoamide (setting [1]), with lipoamide (arsenate co-treatment: none) and with potassium arsenate were -0.119, 0.0598 and 1.62, respectively.

With UXS1 (UniProt Q8NBZ7), the values for the thermal stability z-score with lipoamide (setting [1]), in the assay with lipoamide (arsenate co-treatment: none) and with potassium arsenate were 0.238, 0.551 and 0.198, respectively.
